This is an account of results in patent publication US20230285340A1, “NEPRILYSIN INHIBITORS” (THERAVANCE BIOPHARMA R&D IP, LLC, priority 2011, published 2023).

For the first experiment, the target named is human NEP (Homo sapiens (Human), UniProt P08473). Briefly: In vitro enzyme inhibition assay at human NEP (Assay 1). Type of experiment: biochemical. Conditions: comparative examples, exact values.
`C[C@H](C[C@@H](Cc1ccc(-c2ccccc2)cc1)NC(=O)C(=O)O)C(=O)O` [Comparative Compound A, (2R,4S)-5-Biphenyl-4-yl-2-methyl-4-(oxalyl-amino)-pentanoic Acid, reference compound] came in with a pKi of 8.2.

Staying with this experiment, now noted: reported as ranges.
For `Cc1ccc(Cl)cc1-c1ccc(C[C@H](C[C@@H](O)C(=O)O)NC(=O)C(=O)O)cc1` [Example 5-1, (2R,4R)-5-(5′-Chloro-2′-methylbiphenyl-4-yl)-2-hydroxy-4-(oxalylamino)-pentanoic acid], the pKi was at least 9.

Molecule `O=C(O)C(=O)N[C@H](Cc1ccc(-c2cc(Cl)ccc2F)cc1)C[C@@H](O)C(=O)O` [Example 5-5, (2R,4R)-5-(5′-Chloro-2′-fluorobiphenyl-4-yl)-2-hydroxy-4-(oxalylamino)pentanoic acid] returned a pKi of at least 9.

As to `O=C(O)C(=O)N[C@H](Cc1ccc(-c2cccc(Cl)c2)cc1Cl)C[C@@H](O)C(=O)O` [Example 5-9, (2R,4R)-5-(3,3′-Dichlorobiphenyl-4-yl)-2-hydroxy-4-(oxalylamino)pentanoic acid], the negative logarithm of the Ki (pKi) is recorded as at least 9.

For `O=C(O)C(=O)NN(Cc1ccc(-c2cc(Cl)ccc2F)cc1Cl)C[C@@H](O)C(=O)O` [Example 5-13, (R)-3-[N-(3,5′-Dichloro-2′-fluorobiphenyl-4-ylmethyl)-N′-oxalyl-hydrazino]-2-hydroxypropionic acid], the pKi was at least 9.

In turn, `CCOC(=O)C(=O)N[C@H](Cc1ccc(-c2cc(Cl)ccc2F)cc1)C[C@@H](O)C(=O)O` [Example 5-14, (2R,4R)-5-(5′-Chloro-2′-fluorobiphenyl-4-yl)-4-(ethoxyoxalylamino)-2-hydroxy-pentanoic acid] gave a pKi of at least 9.

Molecule `CC(C)OC(=O)C(=O)N[C@H](Cc1ccc(-c2cc(Cl)ccc2F)cc1)C[C@@H](O)C(=O)O` [Example 5-15, (2R,4R)-5-(5′-Chloro-2′-fluorobiphenyl-4-yl)-2-hydroxy-4-(isopropoxyoxalyl-amino)-pentanoic acid] registered a negative-log Ki (pKi) of at least 9.

`CCOC(=O)[C@H](O)C[C@@H](Cc1ccc(-c2cccc(Cl)c2)cc1Cl)NC(=O)C(=O)O` [Example 5-17, (2R,4R)-5-(3,3′-Dichlorobiphenyl-4-yl)-2-hydroxy-4-(oxalylamino)pentanoic acid ethyl ester] registered a pKi of at least 9.

In the case of `C[C@@](CO)(C[C@@H](Cc1ccc(-c2ccccc2F)cc1)NC(=O)C(=O)O)C(=O)O` [Example 11-1, (2S,4R)-5-(2′-Fluorobiphenyl-4-yl)-2-hydroxymethyl-2-methyl-4-(oxalylamino)pentanoic acid], the pKi was 8.0-8.9.

In turn, `C[C@@](CO)(C[C@@H](Cc1ccc(-c2cc(Cl)ccc2F)cc1)NC(=O)C(=O)O)C(=O)O` [Example 11-2, (2S,4R)-5-(5′-Chloro-2′-fluorobiphenyl-4-yl)-2-hydroxymethyl-2-methyl-4-(oxalyl-amino)pentanoic acid] came in with a pKi of at least 9.

In the case of `C[C@@](CO)(C[C@@H](Cc1ccc(-c2ccc(F)cc2)cc1)NC(=O)C(=O)O)C(=O)O` [Example 11-3, (2S,4R)-5-(4′-Fluorobiphenyl-4-yl)-2-hydroxymethyl-2-methyl-4-(oxalylamino)pentanoic acid], the negative-log Ki (pKi) is listed as 7.0-7.9.

In the case of `CC(C)COC(=O)C(=O)N[C@H](Cc1ccc(-c2cccc(Cl)c2)cc1)C[C@@](C)(CO)C(=O)O` [Example 11-4, (2S,4R)-5-(3′-Chlorobiphenyl-4-yl)-2-hydroxymethyl-4-(isobutoxyoxalyl-amino)-2-methylpentanoic acid], the pKi is given as 8.0-8.9.

Broadly, the pKi is −log10 of the Ki, conventionally taken in molar units.
